# ChEMBL document CHEMBL4715849, “Recent Progress in the Discovery of Antifungal Agents Targeting the Cell Wall” (J Med Chem, 2020)
# Columns and labels:
# Aspergillus fumigatus = assay: Antifungal activity against Aspergillus fumigatus MF5668 assessed as inhibition of normal hyphal growth; assay type: functional; conditions: time 24 hrs, read-out: MEC
# Candida albicans [1] = assay: Antifungal activity against Candida albicans; assay type: functional
# Cryptococcus neoformans [2] = assay: Antifungal activity against Cryptococcus neoformans MY2061 incubated for 24 hrs by liquid microdilution assay; assay type: functional
# [3] = test system: Meyerozyma guilliermondii; assay: Antifungal activity against Candida guilliermondii CLY308 incubated for 24 hrs by liquid microdilution assay; assay type: functional
# [4] = Inhibition of Candida albicans MY1055 1,3-beta-D-glucan synthase assessed as reduction in glucan synthesis by measuring decrease in incorporation of [14C]glucose preincubated for 30 mins followed by pulse-labelling with [U-14C]D-glucose for 30 mins by autoradiography
# Candida albicans [5] = assay: Antifungal activity against Candida albicans MY2301 incubated for 24 hrs by liquid microdilution assay; assay type: functional
# [6] = test system: Meyerozyma guilliermondii; assay: Antifungal activity against Candida guilliermondii CLY346 incubated for 24 hrs by liquid microdilution assay; assay type: functional
# Nakaseomyces glabratus [7] = assay: Antifungal activity against Candida glabrata CLY574 incubated for 24 hrs by liquid microdilution assay; assay type: functional
# Nakaseomyces glabratus [8] = assay: Antifungal activity against Candida glabrata MY1381 incubated for 24 hrs by liquid microdilution assay; assay type: functional
# Aspergillus flavus = assay: Antifungal activity against Aspergillus flavus MF383 incubated for 24 hrs by liquid microdilution assay; assay type: functional
# Candida albicans [9] = assay: Antifungal activity against Candida albicans MY1055 incubated for 24 hrs by liquid microdilution assay; assay type: functional
# Cryptococcus neoformans [10] = assay: Antifungal activity against Cryptococcus neoformans MY2062 incubated for 24 hrs by liquid microdilution assay; assay type: functional
smiles,measurement,setting,value
CC(=O)O[C@@H]1C[C@]23C4=CC[C@@]5(C)[C@H](C(=O)O)[C@@](C)([C@H](C)C(C)C)CC[C@]5(C)[C@H]4CC[C@H]2[C@@](C)(COC3O)[C@H]1O[C@@H]1O[C@H](CO)[C@@H](O)[C@H](O)[C@H]1O (some centres not stated) [ENFUMAFUNGIN],minimal effective concentration,Aspergillus fumigatus,≤ 0.03 µg/mL
same,MIC,Candida albicans [1],0.2 µg/mL
same,MIC,Cryptococcus neoformans [2],> 64 µg/mL
same,MIC,[3],1 µg/mL
same,IC50,[4],0.05 µg/mL
same,MIC,Candida albicans [5],0.5 µg/mL
same,MIC,[6],2 µg/mL
same,MIC,Nakaseomyces glabratus [7],1 µg/mL
same,MIC,Nakaseomyces glabratus [8],1 µg/mL
same,MIC,Aspergillus flavus,≤ 0.03 µg/mL
same,MIC,Candida albicans [9],0.25 µg/mL
same,MIC,Cryptococcus neoformans [10],> 64 µg/mL
